Consider five compounds from patent US20070224674A1, “Selective Enrichiment of Microorganisms for Desired Metabolic Properties” (COMMONWEALTH SCIENTIFIC AND INDUSTRIAL RESEARCH OR, priority 2003, published 2007).

The subject of data set [1] is 1,3-propanediol-degrading microbial population (activated sludge). Kind of data set: Enrichment of activated sludge on 1,3-propanediol, growth from BOD. In kind it is cell-based. As for the experimental part: Isolation of 1,3-propanediol-degrading microorganisms was used to test the feedback loop between feed flow rate and OUR. The feed medium was a defined medium designated 461S (Appendix I) which contained 1.0 g l^−1 1,3-propanediol and the initial flow rate was 43.5 ml h^−1. The operating temperature was 30° C. and pH 7.0. The medium was inoculated with ˜700 ml of activated sludge. The feed flow rate was increased by 20 ml h^−1 if the BOD remained constant for four vessel volumes. After an initial peak in the BOD, which was due to 1,3-propanediol being in excess, the BOD remained constant over a range of flow rates. […] This observation was expected because the inferred μmax of the population from the initial peak in BOD at the start of the experiment was ˜0.25 h^−1 (a doubling time of 2.8 hours). […] could be achieved with any microbial population that is established in the culture because there is a good probability that mutants which can grow at a higher rate will be selected at high feed flow rates.

For data set [2] the following is noted: stated in words; cited from earlier work.
The test system of data set [3] is microorganisms from activated sludge. Put plainly: Enrichment of activated sludge on 1-methyl-2-pyrrolidinone, growth from BOD. Conditions: 30° C., pH 7.0. The class given is cell-based. The protocol: Fresh activated sludge sourced from a wastewater treatment facility was used as the source of microorganisms for enrichment of 1-methyl-2-pyrrolidinone-utilising microbes. […] The enrichment process was performed at 30° C. and pH 7.0 (the pH was maintained at 7.0 by the automatic addition of a potassium hydroxide or hydrochloric acid solution as the alkali and acid, respectively). The feed flow rate was 60 ml h^−1.
After the addition of the activated sludge to a vessel the BOD was high (greater than 500 mg l^−1). […] After 2 ml of 1-methyl-2-pyrrolidinone was added to the vessel (Arrow A; FIG. 8) a rapid rise in BOD was observed indicating exponential growth (FIG. 8). […] Growth is exponential between 1220 and 1460 minutes and μmax can therefore be calculated as 0.52 h^−1, which corresponds to a doubling time of 1.34 hours. The rapid decline in BOD (Arrow B, FIG. 8) was due to the oxygen consumption of the microbial population being greater than the amount of oxygen supplied to the culture.

For a further data set, the system named is Isolate 2A. Kind of data set: 1-methyl-2-pyrrolidinone degradation in liquid batch culture. In kind it is cell-based. The following applies: for Residual 1-methyl-2-pyrrolidinone concentration: 1.0 g l^−1 added. The protocol: (§1) The ability of the pure isolates to grow on 1-methyl-2-pyrrolidinone as the sole source of carbon in liquid culture was also evaluated (Table 3). The cultures were grown in 50 ml screw-capped plastic tubes that contained 10 ml of defined medium and 1.0 g l^−1 1-methyl-2-pyrrolidinone. To ensure each culture was inoculated with a consistent number of cells, 10 ml of medium was seeded with 100 μl of a single colony that had been resuspended in 1 ml of DM. The cultures were incubated at 30° C. shaking at 190 rpm. A single 10 ml culture was harvested by centrifugation at each time point and the supernatant kept for determination of the 1-methyl-2-pyrrolidinone concentration. The 1-methyl-2-pyrrolidinone concentrations were estimated using gas chromatography

The test system of the next data set is Isolate 2B. The description is as above. The class given is cell-based. The following applies: for Residual 1-methyl-2-pyrrolidinone concentration: 1.0 g l^−1 added. The protocol: as §1
Another data set deals with E. coli. Kind of data set: Growth on glucose and benzyl alcohol in defined medium, batch culture. The class given is cell-based, Escherichia coli BL21DE3. The protocol:
(§2) For these control experiments a steady state culture of an Escherichia coli BL21DE3 which was supplied by Novagen (Novagen Inc., Madison, Wis., USA) and was expected to grow on glucose only was used. The culture was established using 5 ml of an E. coli culture taken from a 100 ml shake flask culture which had been grown for 17 hours shaking at 200 rpm and 30° C. in defined medium with 1.0 g l^−1 glucose as the carbon source. Although the feed contained another substrate (benzyl alcohol), no growth on this substrate was expected because this microbial population was known to be unable to use this carbon source for growth. When steady state had been established, 10 mL of a 100 mL shake flask culture of Pseudomonas putida F1 was added. The P. putida F1 culture had been grown at 30° C. for 17 hours, with shaking at 200 rpm, in defined medium with 1.0 g l^−1 glucose as the carbon source. The P. putida F1 was supplied by the American Type Culture Collection (ATCC) and was expected to grow on benzyl alcohol and/or glucose. The OUR was expected to change as a result of the increased microbial activity after the addition of P. putida.
(§3) The success of this control experiment was dependent upon the ability of E. coli to grow on glucose in DM and grow in DM in the presence of benzyl alcohol (i.e. benzyl alcohol is not toxic to E. coli). Also of key importance was the inability of E. coli to grow on benzyl alcohol. […] Although P. putida is well known for its ability to grow on a wide range of aromatic substrates (Wackett, & Hershberger, 2001), growth on benzyl alcohol has not been reported. The optical density at inoculation was calculated (based upon the optical density on the inocula) as 0.021 (E. coli) and 0.026 (P. putida). The cultures were incubated shaking at 200 rpm and 30° C. The optical density was measured at 600 nm after incubation for 23.5 and 75 hours.

For data set [4], the system named is E. coli and P. putida continuous culture. Kind of data set: Continuous culture population shift, residual substrate by gas chromatography. In kind it is cell-based, Escherichia coli BL21DE3, Pseudomonas putida F1. The following applies: when BOD stabilised after addition of P. putida; feed 1.0 g l^−1 benzyl alcohol and 0.5 g l^−1 glucose, 30 ml h^−1. The protocol:
Based on the BOD it was clear that steady state had been attained (it is generally assumed that steady state has been established after turnover of at least three vessel volumes which, in this example would occur after 37.5 hours). After 125.7 hours (equivalent to 10 vessel volumes) of continuous operation, P. putida was added to the culture. Initially, there was no change in the BOD so to ensure P. putida was not being washed out of the vessel the feed flow rate was reduced from 60 ml h^−1 to 30 ml h^−1. […] This observation was confirmed by measuring the residual benzyl alcohol in the culture supernatant, which had started to decrease. As the P. putida population developed the BOD increased, peaking initially at nearly 1400 mg l^−1 before declining to 1050 mg l^−1 after which a second peak in the BOD was observed. […] After the second BOD peak, the BOD stabilised at 1040 mg l^−1 which was the expected BOD for a feed containing 0.5 g l^−1 glucose and 1.0 g l^−1 benzyl alcohol (see calculation below).
The feed consisting of DM containing 0.5 g l^−1 glucose and 1.0 g l^−1 benzyl alcohol was fed into a vessel at 30° C. and pH 7. The feed flow rate was initially 60 ml h^−1. […] At the same time that the BOD stabilised the measured residual benzyl alcohol concentration was zero. […]

In another data set the test system is P. putida. Put plainly: Growth on glucose and benzyl alcohol in defined medium, batch culture. In kind it is cell-based, Pseudomonas putida F1. As for the experimental part:
as §2, §3

For another data set, the system named is Isolate 1B. Kind of data set: Dodecane degradation in liquid batch culture. The class given is cell-based. Conditions: for Residual dodecane concentration: 0.75 g l^−1 added. As for the experimental part:
(§4) The ability of the pure isolates to grow on dodecane as the sole source of carbon in liquid culture was also evaluated and is shown in Table 5. The cultures were grown in 50 ml screw-capped plastic tubes that contained 10 ml of defined medium and 0.75 g l^−1 dodecane. To ensure each culture was inoculated with a consistent number of cells, 10 ml of medium was inoculated with 100 μl of a single colony that had been resuspended in 1 ml of DM. The cultures were incubated at 30° C. shaking at 190 rpm. Residual dodecane was extracted by the addition of 20 ml of hexane to a single 10 ml culture at each time point. The tube was shaken vigorously for one minute and after phase separation, the upper layer was kept for determination of the dodecane concentration. The dodecane concentrations were estimated using gas chromatography.

A further data set has as its system Isolate 1C. Put plainly: Dodecane degradation in liquid batch culture. In kind it is cell-based. The following applies: for Residual dodecane concentration: 0.75 g l^−1 added. The protocol: as §4
In a further data set the test system is Isolate 1D. Kind of data set: Dodecane degradation in liquid batch culture. In kind it is cell-based. Conditions: for Residual dodecane concentration: 0.75 g l^−1 added. The protocol:
as §4

The mark [5] stands for this setting: benzyl alcohol 1.0 g l^−1 only carbon source, 23.5 hours.
Where [6] appears, read: benzyl alcohol 1.0 g l^−1 only carbon source, 75 hours.
Where [7] appears, read: benzyl alcohol 1.0 g l^−1 with glucose 0.1 g l^−1, 23.5 hours.
Where [8] appears, read: benzyl alcohol 1.0 g l^−1 with glucose 0.1 g l^−1, 75 hours.
[9] abbreviates: glucose 0.1 g l^−1 only carbon source, 23.5 hours incubation, 30° C.
The mark [10] stands for this setting: glucose 0.1 g l^−1 only carbon source, 75 hours incubation, 30° C.
Setting [11] is: batch culture, over a 168 hours period.

In data set [1] (corresponds to inferred μmax), `OCCCO` [1,3-propanediol] gave a Doubling time of 2.8 h. Besides, the “Inferred μmax of the population” value in data set [1] (from the initial peak in BOD, 1.0 g l^−1 in feed, 30° C., pH 7.0) is roughly 0.25 h⁻¹.

For `CN1CCCC1=O` [1-methyl-2-pyrrolidinone], the Solubility in water result in [2] is on record as “soluble in water”. Moreover, the “μmax of the population growing on the substrate” value in [3] (calculated from exponential BOD rise between 1220 and 1460 minutes) is 0.52 h⁻¹. In addition, the Doubling time in data set [3] (corresponds to μmax) was 1.34 h. In addition, the “Residual 1-methyl-2-pyrrolidinone concentration” value is “NDa (Not detected (limit of detection · 20 mg l^−1))” in the data set with Isolate 2A (24 h after inoculation); “ND (Not detected (limit of detection · 20 mg l^−1))” in the data set with Isolate 2A (48 h after inoculation); “ND (Not detected (limit of detection · 20 mg l^−1))” in the data set with Isolate 2A (72 h after inoculation); “ND (Not detected (limit of detection · 20 mg l^−1))” with Isolate 2A (96 h after inoculation); “ND (Not detected (limit of detection · 20 mg l^−1))” in the data set on Isolate 2A (168 h after inoculation); “ND (Not detected (limit of detection · 20 mg l^−1))” in the data set on Isolate 2B (24 h after inoculation). Moreover, the “Residual 1-methyl-2-pyrrolidinone concentration” value with Isolate 2B (48 h after inoculation), with Isolate 2B (72 h after inoculation), in the data set on Isolate 2B (96 h after inoculation) and in the data set on Isolate 2B (168 h after inoculation) was “ND (Not detected (limit of detection · 20 mg l^−1))” each time. For the same compound, the “Time to completely degrade 1.0 g l^−1 1-methyl-2-pyrrolidinone” value in the data set on Isolate 2A (batch culture) and in the data set with Isolate 2B (batch culture) was no more than 24 h each time.

`OCc1ccccc1` [Benzyl alcohol, benzyl alcohol]: the “Optical density at 600 nm” value was determined as 0.027 in the data set on E. coli (setting [5]); 0.024 in the data set with E. coli (setting [6]); 0.102 with E. coli (setting [7]); 0.097 with E. coli (setting [8]); 0.021 in the data set on P. putida (setting [5]); 0.417 with P. putida (setting [6]). Also, the “Optical density at 600 nm” value is given as 0.042 in the data set on P. putida (setting [7]) and 0.353 in the data set with P. putida (setting [8]). Further, the “Residual benzyl alcohol concentration” value in data set [4] is listed as “zero”.

Regarding `O=C[C@H](O)[C@@H](O)[C@H](O)[C@H](O)CO` [Glucose, glucose], the “Optical density at 600 nm” value in the data set with E. coli (setting [9]) turned out to be 0.116; with E. coli (setting [10]) it was 0.102; in the data set on P. putida (setting [9]) it was 0.170; in the data set on P. putida (setting [10]), 0.138.

On to `CCCCCCCCCCCC` [dodecane], for which the Solubility in water result in data set [2] is “practically insoluble in water”. Also, the Residual dodecane concentration in the data set on Isolate 1B (24 h after inoculation) is 920 mg/L; in the data set with Isolate 1B (48 h after inoculation) it was 160 mg/L; in the data set with Isolate 1B (72 h after inoculation) it was 420 mg/L; in the data set with Isolate 1B (96 h after inoculation), 270 mg/L; with Isolate 1B (168 h after inoculation), 290 mg/L; in the data set on Isolate 1C (24 h after inoculation), 630 mg/L. The Residual dodecane concentration was 620 mg/L in the data set with Isolate 1C (48 h after inoculation); 440 mg/L in the data set on Isolate 1C (72 h after inoculation); 440 mg/L with Isolate 1C (96 h after inoculation); 280 mg/L in the data set with Isolate 1C (168 h after inoculation); 1080 mg/L in the data set with Isolate 1D (24 h after inoculation); 920 mg/L in the data set on Isolate 1D (48 h after inoculation). Moreover, the values for the Residual dodecane concentration in the data set with Isolate 1D (72 h after inoculation), in the data set on Isolate 1D (96 h after inoculation) and in the data set with Isolate 1D (168 h after inoculation) were 740 mg/L, 410 mg/L and 310 mg/L, respectively. Further, the “Dodecane added to the culture that was used” value in the data set with Isolate 1B (setting [11]), with Isolate 1C (setting [11]) and in the data set with Isolate 1D (setting [11]) was 50 to 60% in each case.
